In data set [1] the test system is Mus musculus. The data set can be described thus: Cognitive enhancing effect in Kunming mouse model of amyloid beta (1 to 42) oligomer-induced memory impairment assessed as induction of fewer entries into dark compartment at 1.3 mg/kg, po starting from day 1 of amyloid beta (1 to 42) oligomer treatment and measured on day 7 by passive avoidance test. The data set is classed as functional, organism-based.

Data set [2] relates to Mus musculus. The data set can be described thus: Toxicity in Kunming mouse model of amyloid beta (1 to 42) oligomer-induced memory impairment assessed as effect on number of arm entries at 1.3 mg/kg/day, po starting from day 1 of amyloid beta (1 to 42) oligomer treatment and measured on day 7 by Y-maze test. The data set is classed as organism-based. To be noted: in vivo.

Data set [3] concerns Mus musculus. The experiment in a line: Neuroprotective activity in Kunming mouse model of amyloid beta (1 to 42) oligomer-induced memory impairment assessed as reduction in neuronal degeneration by measuring reduction in degenerative changes in nucleus of CA1 and CA3 region at 1.3 mg/kg, po starting from day 1 of amyloid beta (1 to 42) oligomer treatment and measured on day 7 by TUNEL assay. The data set is classed as functional, organism-based.

Data set [4] deals with Mus musculus. The data set can be described thus: Memory enhancing effect in Kunming mouse model of amyloid beta (1 to 42) oligomer-induced memory impairment assessed as increase in preferential index in retention session of 1 hr at 1.3 mg/kg/day, po starting from day 1 of amyloid beta (1 to 42) oligomer treatment and measured on day 7 by novel object recognition test. The data set is classed as functional, organism-based.

Data set [5] relates to Mus musculus. The data set can be described thus: Cognitive enhancing effect in Kunming mouse model of amyloid beta (1 to 42) oligomer-induced memory impairment increase in time spent in target quadrant by measuring increase in number of platform crossings at 1.3 mg/kg/day, po starting from day 1 of amyloid beta (1 to 42) oligomer treatment and measured on day 12 by Morris water maze test. The format is functional, organism-based.

In data set [6] the test system is Mus musculus. The experiment in a line: Cognitive enhancing effect in Kunming mouse model of amyloid beta (1 to 42) oligomer-induced memory impairment assessed as […] in spontaneous alternation behaviors at 1.3 mg/kg/day, po starting from day 1 of amyloid beta (1 to 42) oligomer treatment and measured on day 7 by Y-maze test. The data set is classed as functional, organism-based.

The subject of data set [7] is Mus musculus. The data set can be described thus: Cognitive enhancing effect in Kunming mouse model of amyloid beta (1 to 42) oligomer-induced memory impairment assessed as longer escape latency at 1.3 mg/kg, po starting from day 1 of amyloid beta (1 to 42) oligomer treatment and measured on day 7 by passive avoidance test. The format is functional, organism-based.

The subject of data set [8] is Mus musculus. The data set can be described thus: Neuroprotective activity in Kunming mouse model of amyloid beta (1 to 42) oligomer-induced memory impairment assessed as reduction in neural degeneration in CA1 region at 1.3 mg/kg, po starting from day 1 of amyloid beta (1 to 42) oligomer treatment and measured on day 7 by Nissl's staining-based assay. The format is functional, organism-based.

The test system of data set [9] is Mus musculus. The experiment in a line: Neuroprotective activity in Kunming mouse model of amyloid beta (1 to 42) oligomer-induced memory impairment assessed as reduction in neuronal degeneration by measuring clear and intact neurons in CA1 and CA3 region at 1.3 mg/kg, po starting from day 1 of amyloid beta (1 to 42) oligomer treatment and measured on day 7 by TUNEL assay. The data set is classed as functional, organism-based.

The test system of data set [10] is Mus musculus. The experiment in a line: Neuroprotective activity amyloid beta (1 to 42) oligomer-induced memory impaired Kunming mouse assessed as reduction in apoptotic cells in CA1 and CA3 hipocampal neurons at 1.3 mg/kg, po starting from day 1 of amyloid beta (1 to 42) oligomer treatment and measured on day 7 by TUNEL assay. The data set is classed as functional, organism-based.

From ChEMBL document CHEMBL4152201, “Novel sarsasapogenin-triazolyl hybrids as potential anti-Alzheimer's agents: Design, synthesis and biological evaluation” (Eur J Med Chem, 2018) come the findings set out here.

Active and inactive are the calls of the source. The calls are words filed in the database; no cut-off is given here.

As to `COc1cc2c(cc1OC)C(=O)C(CC1CCN(Cc3ccccc3)CC1)C2.Cl` (stereo not given) [DONEPEZIL HYDROCHLORIDE], the result in the data set on Mus musculus [1], with Mus musculus [3], with Mus musculus [4], in the data set on Mus musculus [5], in the data set with Mus musculus [6] and in the data set on Mus musculus [7] was Active. For the same molecule, the result in the data set with Mus musculus [8], in the data set with Mus musculus [9] and in the data set on Mus musculus [10] was Active. Moreover, the Activity result in the data set on Mus musculus [2] is reported as “Non-Toxic”.
